Test results taken from patent publication US20230192661A1, “1, 4, 5, 6-TETRAHYDROPYRIMIDINE-2-AMINE DERIVATIVE” (UBE Corporation, priority 2020, published 2023).

Columns and labels:
αvβ6 = target: T1, αvβ6 (Homo sapiens, UniProt P06756+P18564); assay: αvβ6 cell adhesion inhibition test (HT-29 cells on recombinant human LAP protein); type: cell-based; conditions: recombinant human LAP coating, 200 μM MnCl2, 1 hour, read-out: IC50 (rate of inhibition of cell adhesion, αvβ6)
T1 construct: endogenous in cells; host or cells: HT-29 cells
Summary of the method: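 HT-29 cells in DMEM/0.1% BSA with 200 μM MnCl2 plus test compound, 1 h adhesion at 37 °C on plates coated with […] recombinant human LAP (BSA-blocked). Adherent cells crystal-violet stained and absorbance read; inhibition scaled between uncoated wells (100%) and DMSO (0%), IC50 derived and binned A–E.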

[1] = Transcellular transport test using Caco2 cell; type: in vitro ADME; conditions: human, Caco-2; Caco2 monolayer, A-to-B, 10 μM compound, pH 7.4, 90 minutes
Summary of the method: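 Caco2 monolayers grown 20 to 22 days on 0.4 μm polycarbonate inserts; 10 μM compound (0.1% DMSO) added apically in HBSS/20 mM HEPES pH 7.4, 90 min at 37° C. Basolateral compound quantified by LC-MS/MS; A-to-B Papp computed from transport slope, membrane area and UV-HPLC-measured donor concentration.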

T1 sequence (P06756 31-889 limits assumed): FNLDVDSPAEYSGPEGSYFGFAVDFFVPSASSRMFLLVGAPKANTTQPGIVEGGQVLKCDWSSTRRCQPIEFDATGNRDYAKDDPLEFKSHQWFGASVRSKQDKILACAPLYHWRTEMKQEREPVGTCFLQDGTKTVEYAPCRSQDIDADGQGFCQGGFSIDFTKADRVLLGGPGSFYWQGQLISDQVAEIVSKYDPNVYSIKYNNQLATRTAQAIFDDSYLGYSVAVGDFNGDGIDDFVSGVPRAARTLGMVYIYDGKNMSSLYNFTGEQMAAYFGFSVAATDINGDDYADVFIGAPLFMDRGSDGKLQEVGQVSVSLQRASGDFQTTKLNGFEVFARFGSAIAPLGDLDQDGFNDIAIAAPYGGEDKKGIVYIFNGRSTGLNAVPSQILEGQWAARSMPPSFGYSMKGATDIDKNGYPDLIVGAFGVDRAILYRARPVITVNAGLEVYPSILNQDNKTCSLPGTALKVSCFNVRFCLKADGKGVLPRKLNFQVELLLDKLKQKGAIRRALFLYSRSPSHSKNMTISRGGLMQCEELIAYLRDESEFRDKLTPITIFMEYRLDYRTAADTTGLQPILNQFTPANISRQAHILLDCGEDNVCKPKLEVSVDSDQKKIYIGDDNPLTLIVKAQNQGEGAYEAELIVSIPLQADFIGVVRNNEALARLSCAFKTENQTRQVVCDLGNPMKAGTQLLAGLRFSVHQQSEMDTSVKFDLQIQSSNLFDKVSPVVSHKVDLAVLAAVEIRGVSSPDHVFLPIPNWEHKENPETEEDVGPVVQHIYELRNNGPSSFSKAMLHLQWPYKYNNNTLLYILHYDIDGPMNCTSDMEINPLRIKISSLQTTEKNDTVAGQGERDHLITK
T1 sequence (P06756 891-1048 limits assumed): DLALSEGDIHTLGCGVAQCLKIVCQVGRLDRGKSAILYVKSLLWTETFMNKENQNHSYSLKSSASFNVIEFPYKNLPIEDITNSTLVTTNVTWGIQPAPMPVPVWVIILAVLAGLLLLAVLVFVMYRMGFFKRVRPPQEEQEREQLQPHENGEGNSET
T1 sequence (P18564 22-788): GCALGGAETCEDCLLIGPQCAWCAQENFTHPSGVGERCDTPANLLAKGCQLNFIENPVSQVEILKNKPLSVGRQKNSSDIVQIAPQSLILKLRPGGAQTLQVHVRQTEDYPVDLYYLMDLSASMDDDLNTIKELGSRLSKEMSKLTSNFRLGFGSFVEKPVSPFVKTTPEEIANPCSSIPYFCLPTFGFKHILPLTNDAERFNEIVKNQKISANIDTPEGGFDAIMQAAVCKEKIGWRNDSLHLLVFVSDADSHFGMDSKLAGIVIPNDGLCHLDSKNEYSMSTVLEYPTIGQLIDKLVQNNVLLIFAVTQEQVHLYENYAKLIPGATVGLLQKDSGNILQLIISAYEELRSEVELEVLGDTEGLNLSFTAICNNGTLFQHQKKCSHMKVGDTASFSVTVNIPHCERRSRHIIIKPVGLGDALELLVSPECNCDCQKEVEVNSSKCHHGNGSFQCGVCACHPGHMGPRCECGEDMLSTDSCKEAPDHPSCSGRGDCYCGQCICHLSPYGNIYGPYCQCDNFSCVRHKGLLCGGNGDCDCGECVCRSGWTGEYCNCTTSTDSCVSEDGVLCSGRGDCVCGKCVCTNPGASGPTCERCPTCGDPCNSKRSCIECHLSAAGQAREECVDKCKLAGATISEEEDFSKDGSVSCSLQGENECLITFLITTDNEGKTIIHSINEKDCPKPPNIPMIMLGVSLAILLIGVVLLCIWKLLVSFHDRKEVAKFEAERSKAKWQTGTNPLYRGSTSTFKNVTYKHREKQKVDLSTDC

For O=C(O)C[C@H](NC(=O)CNC(=O)c1cc(NC2=NCC(F)CN2)c2c(Cl)n[nH]c2c1)c1cc(Cl)cc(C(F)(F)F)c1 (stereo partly drawn) [Example 49-(b), (3S)-3-(2-(3-chloro-4-((5-fluoro-1,4,5,6-tetrahydropyrimidin-2-yl)amino)-1H-indazole-6-carboxamido)acetamido)-3-(3-chloro-5-(trifluoromethyl)phenyl)propanoic acid], the IC50 (αvβ6) was less than 3 nM and the Papp A→B at 90 min, 10 μM [1] was 0.5 to 1 ×10⁻⁶ cm/s.

For O=C(O)C[C@H](NC(=O)CNC(=O)c1cc(NC2=NCC(O)CN2)c2cn[nH]c2c1)c1cc(Cl)cc(C(F)(F)F)c1 (stereo partly drawn) [Example 50-(b), (3S)-3-(3-chloro-5-(trifluoromethyl)phenyl)-3-(2-(4-((5-hydroxy-1,4,5,6-tetrahydropyrimidin-2-yl)amino)-1H-indazole-6-carboxamido)acetamido)propanoic acid], the IC50 (αvβ6) was 10 to 30 nM and the Papp A→B at 90 min, 10 μM [1] was greater than 1 ×10⁻⁶ cm/s.

Work on O=C(O)C[C@H](NC(=O)CNC(=O)c1cc(NC2=NCCCN2)c2cn[nH]c2c1)c1cc(Cl)cc(C(F)(F)F)c1 [Example 51-(b), (S)-3-(3-chloro-5-(trifluoromethyl)phenyl)-3-(2-(4-((1,4,5,6-tetrahydropyrimidin-2-yl)amino)-1H-indazole-6-carboxamido)acetamido)propanoic acid] yielded an IC50 (αvβ6) of 10 to 30 nM and a Papp A→B at 90 min, 10 μM [1] greater than 1 ×10⁻⁶ cm/s.

With O=C(O)C[C@H](NC(=O)CNC(=O)c1cc(NC2=NCC(F)CN2)cc2[nH]ncc12)c1cc(Cl)cc(C(F)(F)F)c1 (stereo partly drawn) [Example 52-(b), (3S)-3-(3-chloro-5-(trifluoromethyl)phenyl)-3-(2-(6-((5-fluoro-1,4,5,6-tetrahydropyrimidin-2-yl)amino)-1H-indazole-4-carboxamido)acetamido)propanoic acid] the IC50 (αvβ6) was less than 3 nM and the Papp A→B at 90 min, 10 μM [1] was 0.1 to 0.5 ×10⁻⁶ cm/s.

With O=C(O)C[C@H](NC(=O)CNC(=O)c1cc(NC2=NCC(F)CN2)cc2[nH]ncc12)c1cc(Br)cc(C(F)(F)F)c1 (stereo partly drawn) [Example 53-(b), (3S)-3-(3-bromo-5-(trifluoromethyl)phenyl)-3-(2-(6-((5-fluoro-1,4,5,6-tetrahydropyrimidin-2-yl)amino)-1H-indazole-4-carboxamido)acetamido)propanoic acid] the IC50 (αvβ6) was less than 3 nM and the Papp A→B at 90 min, 10 μM [1] was 0.1 to 0.5 ×10⁻⁶ cm/s.

O=C(O)C[C@H](NC(=O)CNC(=O)c1cc(NC2=NCC(F)CN2)cc2[nH]ncc12)c1cc(I)cc(C(F)(F)F)c1 (stereo partly drawn) [Example 54-(b), (3S)-3-(2-(6-((5-fluoro-1,4,5,6-tetrahydropyrimidin-2-yl)amino)-1H-indazole-4-carboxamido)acetamido)-3-(3-iodo-5-(trifluoromethyl)phenyl)propanoic acid] gave an IC50 (αvβ6) of less than 3 nM and a Papp A→B at 90 min, 10 μM [1] of 0.1 to 0.5 ×10⁻⁶ cm/s.

Work on O=C(O)C[C@H](NC(=O)CNC(=O)c1cc(NC2=NCC(F)CN2)cc2[nH]ncc12)c1ccc(F)c(C(F)(F)F)c1 (stereo partly drawn) [Example 55-(b), (3S)-3-(2-(6-((5-fluoro-1,4,5,6-tetrahydropyrimidin-2-yl)amino)-1H-indazole-4-carboxamido)acetamido)-3-(4-fluoro-3-(trifluoromethyl)phenyl)propanoic acid] yielded an IC50 (αvβ6) of less than 3 nM and a Papp A→B at 90 min, 10 μM [1] of 0.1 to 0.5 ×10⁻⁶ cm/s.

O=C(O)C[C@H](NC(=O)CNC(=O)c1cc(NC2=NCC(F)CN2)cc2[nH]ncc12)c1cccc(C(F)(F)F)c1 (stereo partly drawn) [Example 56-(b), (3S)-3-(2-(6-((5-fluoro-1,4,5,6-tetrahydropyrimidin-2-yl)amino)-1H-indazole-4-carboxamido)acetamido)-3-(3-(trifluoromethyl)phenyl)propanoic acid] gave an IC50 (αvβ6) of 3 to 10 nM and a Papp A→B at 90 min, 10 μM [1] of 0.1 to 0.5 ×10⁻⁶ cm/s.
